Measured values from ChEMBL document CHEMBL1153819, “Use of acetylcholine binding protein in the search for novel alpha7 nicotinic receptor ligands. In silico docking, pharmacological screening, and X-ray analysis” (J Med Chem, 2009).
Active and inactive are the calls of the source. The calls are words filed in the database; no cut-off is given here.

How the values were obtained:
[1] = target: Acetylcholine-binding protein (Lymnaea stagnalis, UniProt P58154); experiment: Displacement of [125I]alpha-bungarotoxin from Lymnaea stagnalis His-tagged AchBP
Sequence of Acetylcholine-binding protein (P58154 whole entry): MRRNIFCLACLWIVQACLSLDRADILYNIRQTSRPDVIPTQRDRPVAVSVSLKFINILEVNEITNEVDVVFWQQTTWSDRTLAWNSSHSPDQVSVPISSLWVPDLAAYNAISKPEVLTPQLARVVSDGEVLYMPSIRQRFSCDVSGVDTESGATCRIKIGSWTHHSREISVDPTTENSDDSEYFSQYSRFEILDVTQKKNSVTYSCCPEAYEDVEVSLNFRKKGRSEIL

[2] = target: T1, Neuronal acetylcholine receptor subunit alpha-7 (Homo sapiens, UniProt P36544); experiment: Activity at human alpha7 nAChR expressed in Xenopus oocytes assessed as inhibition of acetylcholine-evoked current; type: cell-based, Oocyte; details: for Activity: Oocyte
T1 sequence (P36544 whole entry): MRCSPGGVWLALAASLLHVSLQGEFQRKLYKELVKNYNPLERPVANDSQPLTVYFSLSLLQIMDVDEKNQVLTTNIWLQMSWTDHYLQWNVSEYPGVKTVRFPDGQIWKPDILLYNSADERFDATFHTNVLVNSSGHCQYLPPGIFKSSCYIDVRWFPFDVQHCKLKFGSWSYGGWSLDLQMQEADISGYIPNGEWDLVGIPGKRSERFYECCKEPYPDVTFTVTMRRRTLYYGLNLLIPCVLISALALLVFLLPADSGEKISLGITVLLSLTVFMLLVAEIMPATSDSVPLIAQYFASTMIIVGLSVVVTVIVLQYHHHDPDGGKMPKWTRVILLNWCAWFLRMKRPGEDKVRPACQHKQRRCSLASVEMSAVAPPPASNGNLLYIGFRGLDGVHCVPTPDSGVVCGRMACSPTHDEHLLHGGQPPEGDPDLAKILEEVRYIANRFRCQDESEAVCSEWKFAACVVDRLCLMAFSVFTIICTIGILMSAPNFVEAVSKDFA

[3] = target: T1, Neuronal acetylcholine receptor subunit alpha-7; experiment: Binding affinity to human alpha7 nAChR allosteric site assessed as decrease in bungarotoxin Bmax at 100 uM by [125I]alpha-bungarotoxin saturation binding experiment
[4] = target: T2, 5-hydroxytryptamine receptor 3A (Homo sapiens) (UniProt P46098); experiment: Inhibition of human 5HT3A receptor
T2 sequence (whole entry): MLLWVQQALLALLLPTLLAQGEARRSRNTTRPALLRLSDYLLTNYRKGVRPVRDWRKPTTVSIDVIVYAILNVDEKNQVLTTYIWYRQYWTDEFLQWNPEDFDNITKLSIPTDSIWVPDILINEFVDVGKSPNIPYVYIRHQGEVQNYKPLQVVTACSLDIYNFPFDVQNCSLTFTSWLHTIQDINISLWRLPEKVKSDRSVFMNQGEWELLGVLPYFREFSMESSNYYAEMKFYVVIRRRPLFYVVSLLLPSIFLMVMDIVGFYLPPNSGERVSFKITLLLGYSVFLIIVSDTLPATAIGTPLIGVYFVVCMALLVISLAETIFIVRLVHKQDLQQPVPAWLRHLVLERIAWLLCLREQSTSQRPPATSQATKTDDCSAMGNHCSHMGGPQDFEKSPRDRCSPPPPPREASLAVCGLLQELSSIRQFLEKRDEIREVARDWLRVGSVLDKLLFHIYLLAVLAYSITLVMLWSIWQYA

[5] = target: T3, Neuronal acetylcholine receptor; alpha4/beta2 (Homo sapiens, UniProt P17787+P43681); experiment: Activity at human alpha4beta2 nAChR expressed in Xenopus oocytes assessed as inhibition of acetylcholine-evoked current; type: cell-based, Oocyte; details: for Activity: Oocyte
T3 sequence (P17787 whole entry): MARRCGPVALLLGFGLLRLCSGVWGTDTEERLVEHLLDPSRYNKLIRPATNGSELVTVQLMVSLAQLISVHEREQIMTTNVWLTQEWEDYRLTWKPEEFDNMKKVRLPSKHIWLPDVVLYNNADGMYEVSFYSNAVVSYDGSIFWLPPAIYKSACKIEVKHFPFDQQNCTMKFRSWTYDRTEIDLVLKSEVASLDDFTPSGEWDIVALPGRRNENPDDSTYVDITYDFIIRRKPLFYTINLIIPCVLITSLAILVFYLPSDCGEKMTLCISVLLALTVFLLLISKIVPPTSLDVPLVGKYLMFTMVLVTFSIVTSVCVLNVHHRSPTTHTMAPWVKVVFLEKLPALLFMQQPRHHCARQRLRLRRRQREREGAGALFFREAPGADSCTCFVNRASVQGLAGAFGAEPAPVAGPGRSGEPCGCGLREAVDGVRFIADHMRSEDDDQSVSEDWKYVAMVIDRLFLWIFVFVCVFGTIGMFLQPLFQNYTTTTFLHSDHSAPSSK
T3 sequence (P43681 whole entry): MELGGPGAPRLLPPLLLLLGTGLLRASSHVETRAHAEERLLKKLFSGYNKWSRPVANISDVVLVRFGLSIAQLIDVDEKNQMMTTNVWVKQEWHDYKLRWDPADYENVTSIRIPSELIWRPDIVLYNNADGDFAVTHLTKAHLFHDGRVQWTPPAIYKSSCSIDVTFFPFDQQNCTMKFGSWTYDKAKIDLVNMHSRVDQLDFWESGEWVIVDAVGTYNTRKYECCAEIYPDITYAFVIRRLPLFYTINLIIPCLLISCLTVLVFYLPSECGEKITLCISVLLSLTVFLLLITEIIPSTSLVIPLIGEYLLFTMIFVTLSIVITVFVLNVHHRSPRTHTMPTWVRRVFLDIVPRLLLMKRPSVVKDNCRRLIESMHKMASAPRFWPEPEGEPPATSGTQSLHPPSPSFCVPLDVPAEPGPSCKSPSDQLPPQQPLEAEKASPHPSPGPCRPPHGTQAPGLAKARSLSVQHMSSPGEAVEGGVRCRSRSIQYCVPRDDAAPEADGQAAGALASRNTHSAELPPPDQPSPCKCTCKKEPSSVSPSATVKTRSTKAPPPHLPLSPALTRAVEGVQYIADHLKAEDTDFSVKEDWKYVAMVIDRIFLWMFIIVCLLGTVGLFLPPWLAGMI

[6] = target: T3, Neuronal acetylcholine receptor; alpha4/beta2; experiment: Displacement of [3H]epibatidine from human alpha4beta2 nAChR expressed in HEK293t cells; type: cell-based; details: HEK-293T
[7] = target: T1, Neuronal acetylcholine receptor subunit alpha-7; experiment: Displacement of [125I]alpha-bungarotoxin from human alpha7 nAChR expressed in human SH-SY5Y cells; type: cell-based
[8] = Displacement of [3H]epibatidine from Aplysia californica AchBP
[9] = target: T1, Neuronal acetylcholine receptor subunit alpha-7; experiment: Binding affinity to human alpha7 nAChR allosteric site assessed as increase in bungarotoxin Kd at 100 uM by [125I]alpha-bungarotoxin saturation binding experiment

N#CCCN1C2CCC1CC(OC1c3ccccc3CCc3ccccc31)C2 (centres undefined) showed a Ki [1] of 1000 nM.

CCN1C2CCC1CC(OC1c3ccccc3CCc3ccccc31)C2 (centres undefined) showed a Ki [1] of 126 nM.

In the case of C[N+]1(C)C2CCC1CC(OC1c3ccccc3CCc3ccccc31)C2 (centres undefined), the IC50 [2] is reported as 880 nM, the Activity [2] is reported as “Dose-dependent effect” and the Activity [3] is reported as “Active”. For the same compound, the Activity [4] was “Active”, the IC50 [5] was 210 nM and the Activity [5] was “Dose-dependent effect”. For the same compound, the Activity [6] was “inactive”, the Ki [7] was 2000 nM and the Ki [1] was 63.1 nM.

Cc1ccc2c(c1)C(OC1CC3CCC(C1)N3C)c1ccccc1CC2 (centres undefined) showed a Ki [1] of 126 nM.

CCCN1CCC(OC2c3ccccc3CCc3ccccc32)CC1 showed a Ki [1] of 631 nM.

Compound CN1CCC(OC2c3ccccc3CCc3ccccc32)CC1 [HEPZIDINE] has a Ki [1] of 1580 nM.

Work on Cc1cccc2c1CCc1ccccc1C2OC1CC2CCC(C1)N2C (centres undefined) yielded a Ki [1] of 316 nM.

For c1ccc(CN2C3CCC2CC(OC2c4ccccc4CCc4ccccc42)C3)cc1 (centres undefined), the IC50 [2] was 1730 nM, the Activity [2] was “Dose-dependent effect” and the pKi [8] was 6. For the same compound, the Activity [3] was “Active”, the Activity [4] was “Active” and the IC50 [5] was 460 nM. The Activity [5] was “Dose-dependent effect”, the Activity [6] was “inactive” and the Ki [7] was 12600 nM. The Activity [9] was “Active” and the Ki [1] was 100 nM.

For NC(N)=NCCN1C2CCC1CC(OC1c3ccccc3CCc3ccccc31)C2 (centres undefined), the Ki [1] was 501 nM.

Compound CC(=O)OCC[N+](C)(C)C [ACETYLCHOLINE] has a Ki [1] of 3160 nM.

For CN1CCC[C@H]1c1cccnc1 [NICOTINE], the pKi [8] was 6.4.

Work on c1ccc2c(c1)CCc1ccccc1C2OC1CC2CCC(C1)N2 (centres undefined) yielded a Ki [1] of 316 nM.

Work on N=C(CCN1C2CCC1CC(OC1c3ccccc3CCc3ccccc31)C2)NO (centres undefined) yielded a Ki [1] of 1260 nM.

In the case of CN1[C@@H]2CC[C@H]1C[C@@H](OC1c3ccccc3CCc3ccccc31)C2 [DEPTROPINE], the Ki [1] is reported as 398 nM.

CN1C2CCC1CC(OC(=O)COC1c3ccccc3CCc3ccccc31)C2 (centres undefined) showed a Ki [1] of 100 nM.

Work on c1ccc2c(c1)CCc1ccccc1C2OC1CCNCC1 yielded a Ki [1] of 3160 nM.
